Measurements taken from patent publication US9695154B2, “Heteroaryl inhibitors of sumo activating enzyme” (MILLENNIUM PHARMACEUTICALS, INC., priority 2013, dated 2017).

Molecular target: T1, recombinant human SAE enzyme (Homo sapiens, UniProt Q9UBT2)
T1 sequence (Q9UBT2 1-640): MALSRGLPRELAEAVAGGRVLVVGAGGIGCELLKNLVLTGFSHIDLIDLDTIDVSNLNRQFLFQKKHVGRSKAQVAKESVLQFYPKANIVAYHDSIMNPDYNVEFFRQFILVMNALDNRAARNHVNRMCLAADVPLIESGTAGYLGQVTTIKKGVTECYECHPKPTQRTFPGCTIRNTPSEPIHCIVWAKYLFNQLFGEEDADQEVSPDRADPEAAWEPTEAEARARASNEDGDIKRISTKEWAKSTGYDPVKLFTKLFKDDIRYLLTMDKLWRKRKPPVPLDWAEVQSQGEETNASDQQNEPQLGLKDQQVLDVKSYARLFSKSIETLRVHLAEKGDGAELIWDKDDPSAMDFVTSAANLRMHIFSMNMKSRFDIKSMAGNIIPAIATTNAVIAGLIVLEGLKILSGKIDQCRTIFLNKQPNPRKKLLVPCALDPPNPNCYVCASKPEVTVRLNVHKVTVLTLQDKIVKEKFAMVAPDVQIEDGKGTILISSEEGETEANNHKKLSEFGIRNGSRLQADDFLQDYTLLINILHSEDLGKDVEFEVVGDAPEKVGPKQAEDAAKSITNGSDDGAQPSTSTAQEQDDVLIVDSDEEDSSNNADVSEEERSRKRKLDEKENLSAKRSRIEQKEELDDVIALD
T1 sequence (Q9UBE0 1-346 partner): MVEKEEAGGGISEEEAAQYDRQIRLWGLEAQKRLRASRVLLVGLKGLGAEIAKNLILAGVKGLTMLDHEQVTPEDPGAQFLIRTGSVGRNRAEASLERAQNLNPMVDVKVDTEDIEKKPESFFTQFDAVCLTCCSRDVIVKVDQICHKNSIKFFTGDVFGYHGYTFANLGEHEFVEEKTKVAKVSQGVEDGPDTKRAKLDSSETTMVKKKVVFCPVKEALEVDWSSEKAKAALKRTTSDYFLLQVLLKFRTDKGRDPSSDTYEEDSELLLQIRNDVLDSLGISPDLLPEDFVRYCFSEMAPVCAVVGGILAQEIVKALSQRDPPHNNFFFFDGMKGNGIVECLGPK
Assay: SAE HTRF Enzyme Assay
Type: biochemical
Settings: for IC50: class symbols A-C; for inhibition at 0.111 µM: read-out: Percent Inhibition
How it was run: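 Recombinant human SAE (0.11 nM) transferred Sumo-Flag (0.125 μM) to Ubc9-GST (0.01 μM) with 0.5 μM ATP in HEPES pH 7.5, MgCl2, GSH, BSA; 105 min at 24° C. EDTA stop, Eu-cryptate anti-Flag and XL-APC anti-GST added, 2 h, then HTRF read. Values given as % inhibition at one concentration or IC50.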

[1] = compound concentration 0.111 μM

Compound	IC50 [nM]	inhibition at 0.111 µM [1] [%]	Percent Inhibition (compound concentration 0.111 μM, 0.111 µM) [%]
CC1(C)CCC(Cn2ccc(C(=O)c3cncnc3N[C@@H]3C[C@H](COS(N)(=O)=O)[C@@H](O)[C@@H]3F)c2)O1 (mixture of isomers) [Compound I-250, [(1R,2R,3R,4R)-4-({5-[(1-{[(2R)-5,5-dimethyltetrahydrofuran-2-yl]methyl}-1H-pyrrol-3-yl)carbonyl]pyrimidin-4-yl}amino)-3-fluoro-2-hydroxycyclopentyl]methyl sulfamate and [(1R,2R,3R,4R)-4-({5-[(1-{[(2S)-5,5-dimethyltetrahydrofuran-2-yl]methyl}-1H-pyrrol-3-yl)carbonyl]pyrimidin-4-yl}amino)-3-fluoro-2-hydroxycyclopentyl]methyl sulfamate]	10 to 100	86	
Cc1cc(C(=O)c2cncnc2N[C@@H]2C[C@H](COS(N)(=O)=O)[C@@H](O)[C@@H]2F)nn1Cc1cccc(I)c1 [Compound I-294, {(1R,2R,3R,4R)-3-fluoro-2-hydroxy-4-[(5-{[1-(3-iodobenzyl)-5-methyl-1H-pyrazol-3-yl]carbonyl}pyrimidin-4-yl)amino]cyclopentyl}methyl sulfamate]	< 10	100	
Cn1cccc(Cn2ccc(C(=O)c3cncnc3N[C@@H]3C[C@H](COS(N)(=O)=O)[C@@H](O)C3)n2)c1=O [Compound I-80, [(1R,2S,4R)-2-hydroxy-4-{[5-({1-[(1-methyl-2-oxo-1,2-dihydropyridin-3-yl)methyl]-1H-pyrazol-3-yl}carbonyl)pyrimidin-4-yl]amino}cyclopentyl]methyl sulfamate]	< 10	96	
NS(=O)(=O)OC[C@H]1C[C@@H](Nc2ncncc2C(=O)c2ccn(Cc3ccc(Cl)o3)n2)C[C@@H]1O [Compound I-180, [(1R,2S,4R)-4-{[5-({1-[(5-chloro-2-furyl)methyl]-1H-pyrazol-3-yl}carbonyl)pyrimidin-4-yl]amino}-2-hydroxycyclopentyl]methyl sulfamate]	< 10	99	
NS(=O)(=O)OC[C@H]1C[C@@H](Nc2ncncc2C(=O)c2ccn(CC3CC3c3ccccc3)c2)[C@@H](F)[C@@H]1O (single isomer, unassigned) [Compound I-359, [(1R,2R,3R,4R)-3-fluoro-2-hydroxy-4-{[5-({1-[(1R,2R)-(2-phenylcyclopropyl)methyl]-1H-pyrrol-3-yl}carbonyl)pyrimidin-4-yl]amino}cyclopentyl]methyl sulfamate or [(1R,2R,3R,4R)-3-fluoro-2-(hydroxy-4-{[5-({1-[(1S,2S)-(2-phenylcyclopropyl)methyl]-1H-pyrrol-3-yl}carbonyl)pyrimidin-4-yl]amino}cyclopentyl]methyl sulfamate]	10 to 100		68
NS(=O)(=O)OC[C@H]1C[C@@H](Nc2ncncc2C(=O)c2ccn(Cc3cccc(C(F)(F)F)c3)c2)[C@@H](F)[C@@H]1O [Compound I-7, [(1R,2R,3R,4R)-3-fluoro-2-hydroxy-4-{[5-({1-[3-(trifluoromethyl)benzyl]-lH-pyrrol-3-yl}carbonyl)pyrimidin-4-yl]amino}cyclopentyl]methyl sulfamate]	< 10	99	
NS(=O)(=O)OC[C@H]1C[C@@H](Nc2ncncc2C(=O)c2ccn(Cc3cc4ccccc4s3)n2)C[C@@H]1O [Compound I-241, {(1R,2S,4R)-4-[(5-{[1-(1-benzothiophen-2-ylmethyl)-1H-pyrazol-3-yl]carbonyl}pyrimidin-4-yl)amino]-2-hydroxycyclopentyl}methyl sulfamate]	< 10	98	
NS(=O)(=O)OC[C@H]1C[C@@H](Nc2ncncc2C(=O)c2ccn(Cc3cccc(C4(O)COC4)c3)n2)C[C@@H]1O [Compound I-270, [(1R,2S,4R)-2-hydroxy-4-{[5-{{1-[3-(3-hydroxyoxetan-3-yl)benzyl]-1H-pyrazol-3-yl}carbonyl)pyrimidin-4-yl]amino}cyclopentyl]methyl sulfamate]	10 to 100	87	
NS(=O)(=O)OC[C@H]1C[C@@H](Nc2ncncc2C(=O)c2ccn(Cc3cc(Br)ccc3Cl)n2)C[C@@H]1O [Compound I-239, {(1R,2S,4R)-4-[(5-{[1-(5-bromo-2-chlorobenzyl)-1H-pyrazol-3-yl]carbonyl}pyrimidin-4-yl)amino]-2-hydroxycyclopentyl}methyl sulfamate]	< 10	99	
NS(=O)(=O)OC[C@H]1C[C@@H](Nc2ncncc2C(=O)c2ccn(Cc3ccc(Cl)c(F)c3)n2)[C@H](O)[C@@H]1O [Compound I-112, {(1R,2R,3S,4R)-4-[(5-{[1-(4-chloro-3-fluorobenzyl)-1H-pyrazol-3-yl]carbonyl}pyrimidin-4-yl)amino]-2,3-dihydroxycyclopentyl}methyl sulfamate]	< 10	97	
NS(=O)(=O)OC[C@H]1C[C@@H](Nc2ncncc2C(=O)c2ccn(Cc3ccc(Cl)c(Cl)c3)n2)C[C@@H]1O [Compound I-58, {(1R,2S,4R)-4-[(5-{[1-(3,4-dichlorobenzyl)-1H-pyrazol-3-yl]carbonyl}pyrimidin-4-yl)amino]-2-hydroxycyclopentyl}methyl sulfamate]	< 10	88	
Cc1cc(C(=O)c2cncnc2N[C@@H]2C[C@H](COS(N)(=O)=O)[C@@H](O)C2)nn1Cc1cccc(Br)c1 [Compound I-309, {(1R,2S,4R)-4-[(5-{[1-(3-Bromobenzyl)-5-methyl-1H-pyrazol-3-yl]carbonyl}pyrimidin-4-yl)amino]-2-hydroxycyclopentyl}methyl sulfamate]	< 10	100	
NS(=O)(=O)OC[C@H]1C[C@@H](Nc2ncncc2C(=O)c2cc(C(F)(F)F)n(Cc3ccccc3)c2)[C@@H](F)[C@@H]1O [Compound I-94, {(1R,2R,3R,4R)-4-[(5-{[1-Benzyl-5-(trifluoromethyl)-1H-pyrrol-3-yl]carbonyl}pyrimidin-4-yl)amino]-3-fluoro-2-hydroxycyclopentyl}methyl sulfamate]	< 10	97	
Cc1cc(Cn2ccc(C(=O)c3cncnc3N[C@@H]3C[C@H](COS(N)(=O)=O)[C@@H](O)C3)n2)ccc1F [Compound I-14, {(1R,2S,4R)-4-[(5-{[1-(4-fluoro-3-methylbenzyl)-1H-pyrazol-3-yl]carbonyl}pyrimidin-4-yl)amino]-2-hydroxycyclopentyl}methyl sulfamate]	< 10	98	
N#CCn1ccc(C(=O)c2cncnc2N[C@@H]2C[C@H](COS(N)(=O)=O)[C@@H](O)C2)n1 [Compound I-108, {(1R,2S,4R)-4-[(5-{[1-(cyanomethyl)-1H-pyrazol-3-yl]carbonyl}pyrimidin-4-yl)amino]-2-hydroxycyclopentyl}methyl sulfamate]	100 to 1000	18	
NS(=O)(=O)OC[C@H]1C[C@@H](Nc2ccncc2C(=O)c2ccn(Cc3cccc(OC(F)(F)F)c3)c2)C[C@@H]1O [Compound I-83, [(1R,2S,4R)-2-Hydroxy-4-{[3-({1-[3-(trifluoromethoxy)benzyl]-1H-pyrrol-3-yl}carbonyl)pyridin-4-yl]amino}cyclopentyl]methyl sulfamate]	10 to 100	88	
NS(=O)(=O)OC[C@H]1C[C@@H](Nc2ncncc2C(=O)c2ccn(Cc3ccccc3Cl)n2)C[C@@H]1O [Compound I-206, {(1R,2S,4R)-4-[(5-{[1-(2-chlorobenzyl)-1H-pyrazol-3-yl]carbonyl}pyrimidin-4-yl)amino]-2-hydroxycyclopentyl}methyl sulfamate]	< 10	96	
CC(C)(O)c1cccc(Cn2ccc(C(=O)c3cncnc3N[C@@H]3C[C@H](COS(N)(=O)=O)[C@@H](O)C3)n2)n1 [Compound I-109, [(1R,2S,4R)-2-hydroxy-4-({5-[(1-{[6-(2-hydroxypropan-2-yl)pyridin-2-yl]methyl}-1H-pyrazol-3-yl)carbonyl]pyrimidin-4-yl}amino)cyclopentyl]methyl sulfamate]	10 to 100	76	
NS(=O)(=O)OC[C@H]1C[C@@H](Nc2ncncc2C(=O)c2ccn(Cc3ccc(Cl)cc3F)n2)C[C@@H]1O [Compound I-191, {(1R,2S,4R)-4-[(5-{[1-(4-chloro-2-fluorobenzyl)-1H-pyrazol-3-yl]carbonyl}pyrimidin-4-yl)amino]-2-hydroxycyclopentyl}methyl sulfamate]	< 10	92	
